Values after ≈ are worked out from the molar mass of the structure shown. Like-named read-outs stand apart in the source and are kept apart here.

One data set concerns E. coli MG1655OXA-48. Nature of the data set: Bacterial susceptibility. Format: cell-based. Conditions: for MIC: Escherichia coli.
The target in another data set is OXA-24 (Acinetobacter baumannii, UniProt Q8RLA6). Nature of the data set: Inhibition assay with nitrocefin as reporter, OXA-24. Format: biochemical.
A further data set has as its target OXA-10 (Pseudomonas aeruginosa, UniProt P14489). Nature of the data set: Inhibition assay with nitrocefin as reporter, OXA-10. Format: biochemical.
Another data set addresses OXA-48 (Klebsiella pneumoniae, UniProt Q6XEC0). The experiment in a line: Inhibition of OXA-48 mediated nitrocefin hydrolysis. Format: biochemical. Conditions: purified OXA-48, nitrocefin substrate, Morrison equation.
Another data set addresses OXA-58 (Acinetobacter baumannii, UniProt Q2TR58). The experiment in a line: Inhibition assay with nitrocefin as reporter, OXA-58. Format: biochemical.
Another data set relates to E. coli MG1655. The experiment in a line: Accumulation assay in E. coli. In kind it is cell-based. The conditions noted are these: wild-type E. coli MG1655, 10 minutes at 37°C, LC-MS/MS.
A further data set has as its target OXA-163 (Klebsiella pneumoniae, UniProt Q6XEC0, DEL214-217/S212D). The experiment in a line: Inhibition assay with nitrocefin as reporter, OXA-163. Conditions: read-out: CDD-97 Ki; OXA-163, nitrocefin substrate. Format: biochemical.

For `C[C@@H](O)[C@H]1C(=O)N2C(C(=O)O)=C(SCCN=CN)C[C@H]12` [IMP, imipenem], the MIC in the data set with E. coli MG1655OXA-48 (MG1655OXA48, read-out: IMP MIC, no inhibitor (0 μg/mL)) is 0.625 µg/mL (≈ 2.09 µM).
Take `CC1(C)S[C@@H]2[C@H](NC(=O)[C@H](N)c3ccccc3)C(=O)N2[C@H]1C(=O)O` [AMP, ampicillin]: the MIC with E. coli MG1655OXA-48 (MG1655OXA48, read-out: AMP MIC, no inhibitor (0 μg/mL)) was determined as 512 µg/mL (≈ 1470 µM).
For the molecule `NC(=O)[C@@H]1CC[C@@H]2CN1C(=O)N2OS(=O)(=O)O` [Avibactam, avibactam], the MIC was 256 µg/mL in the data set on E. coli MG1655OXA-48 (MG1655OXA48, read-out: AMP MIC, with avibactam 0.125 μg/mL); 128 µg/mL with E. coli MG1655OXA-48 (MG1655OXA48, read-out: AMP MIC, with avibactam 0.25 μg/mL); 64 µg/mL with E. coli MG1655OXA-48 (MG1655OXA48, read-out: AMP MIC, with avibactam 0.5 μg/mL); 32 µg/mL with E. coli MG1655OXA-48 (MG1655OXA48, read-out: AMP MIC, with avibactam 1 μg/mL); 16 µg/mL with E. coli MG1655OXA-48 (MG1655OXA48, read-out: AMP MIC, with avibactam 2 μg/mL); 4 µg/mL in the data set on E. coli MG1655OXA-48 (MG1655OXA48, read-out: AMP MIC, with avibactam 4 μg/mL). The MIC stood at 0.312 µg/mL with E. coli MG1655OXA-48 (MG1655OXA48, read-out: IMP MIC, with avibactam 0.125 μg/mL); 0.312 µg/mL in the data set on E. coli MG1655OXA-48 (MG1655OXA48, read-out: IMP MIC, with avibactam 0.25 μg/mL); 0.156 µg/mL in the data set with E. coli MG1655OXA-48 (MG1655OXA48, read-out: IMP MIC, with avibactam 0.5 μg/mL); 0.156 µg/mL with E. coli MG1655OXA-48 (MG1655OXA48, read-out: IMP MIC, with avibactam 1 μg/mL); 0.156 µg/mL in the data set on E. coli MG1655OXA-48 (MG1655OXA48, read-out: IMP MIC, with avibactam 2 μg/mL); 0.0781 µg/mL with E. coli MG1655OXA-48 (MG1655OXA48, read-out: IMP MIC, with avibactam 4 μg/mL). Further, the “change of both the AMP and IMP MICs with increasing inhibitor concentration” value in the data set with E. coli MG1655OXA-48 (inhibitor up to 4 μg/ml) is listed as “dose-dependent decrease”.
As to `CCOc1ccccc1N1CCN(c2ncnc(N3CCC(C(=O)O)CC3)n2)CC1` [CDD-97], at OXA-24 (OXA-24 vs OXA-48), the “decrease in potency compared to OXA-48” value is listed as 26 fold. For the same molecule, the inhibition constant (Ki) (commonly a dissociation constant, usually derived from enzyme kinetics or from competition with a known ligand) on OXA-24 (read-out: CDD-97 Ki, OXA-24, nitrocefin substrate) came to 14 ± 1 µM; at OXA-10 (read-out: CDD-97 Ki, OXA-10, nitrocefin substrate), 61 ± 27 µM; on OXA-48, 0.53 ± 0.08 µM; on OXA-58 (read-out: CDD-97 Ki, OXA-58, nitrocefin substrate) it was 45 ± 0.8 µM; at OXA-163, 0.44 ± 0.02 µM. The “Ki less potent than observed for OXA-48” value at OXA-10 (OXA-10 vs OXA-48) and at OXA-58 (OXA-58 vs OXA-48) was “about 100 fold” each time. The “level in cells lower than the positive control tetracycline” value with E. coli MG1655 is listed as 20 fold. The “AMP MIC” value was 1024 µg/mL with E. coli MG1655OXA-48 (with CDD-97 4 μg/mL); 512 µg/mL with E. coli MG1655OXA-48 (with CDD-97 8 μg/mL); 512 µg/mL in the data set on E. coli MG1655OXA-48 (with CDD-97 16 μg/mL); 512 µg/mL in the data set on E. coli MG1655OXA-48 (with CDD-97 32 μg/mL); 512 µg/mL in the data set with E. coli MG1655OXA-48 (with CDD-97 64 μg/mL). The “IMP MIC” value with E. coli MG1655OXA-48 (with CDD-97 4 μg/mL) worked out at 0.625 µg/mL; in the data set with E. coli MG1655OXA-48 (with CDD-97 8 μg/mL), 0.3125 µg/mL; in the data set with E. coli MG1655OXA-48 (with CDD-97 16 μg/mL), 0.3125 µg/mL; in the data set with E. coli MG1655OXA-48 (with CDD-97 32 μg/mL) it was 0.3125 µg/mL; with E. coli MG1655OXA-48 (with CDD-97 64 μg/mL), 0.3125 µg/mL.

(Values after publication PMC7673237 (ACS infectious diseases, 2020).)
